# In US11369654B2, “Application method of Dendrobium candidum in preparing medicine for treating hypertension” (Hangzhou Danhe Pharmaceutical CO., Ltd., priority 2017, dated 2022):
# “And” between values parts separate entries of the source, which are not always exact repeats. Equal values may be shown once.
# Columns and labels:
# [1] = system: Spontaneously Hypertensive Rats (SHR); assay: Experiment 1: antihypertensive effect of Dendrobium officinale extraction methods, tail artery blood pressure; type: in vivo, rat
# Procedure: Rats: Spontaneously Hypertensive Rats (SHR), Wistar rats are used as normal controls.
# (§1) Rat Blood Pressure Measurement: BP-98A Non-invasive Tail Artery Blood Pressure Meter, Japan Soft Rotation Co., Ltd.
# Group therapy is described in the following description. Blood pressure and body weight are measured and grouped after one week of adaptive feeding in all rats. The SHR rats are divided into the water extracting group after crushing and flattening, the water extracting group after crushing, and the water extracting group after grinding into powder, all Chinese medicine groups are given 0.8 g/kg body weight of crude drug, and the amlodipine besylate tablets 0.5 mg/kg body weight are given intragastrically in amlodipine group, the hypertensive model control group is given with the same amount of saline, while the normal control group is given with the same amount of saline. Eight rats in each group were treated for 2 weeks. Blood pressure measurement: The rats are preheated at 38° C. for 5-10 minutes to avoid blood flow in the tail of the rat. The blood pressure of the rats is measured three times in a waking and quiet state, and the average value of the three measurement times is used as the blood pressure of the rats. Blood pressure is measured once a week and once 2 hours after administration.
# [2] = system: Spontaneously Hypertensive Rats (SHR); assay: Experiment 2: hypotensive effect of samples of Embodiment 1 and 2, tail artery blood pressure; type: in vivo, rat; conditions: for valley-peak ratio of Systolic Blood Pressure Reduction: 24 h divided by 2 h after administration
# Procedure: Rats: 10 weeks old Spontaneously Hypertensive Rats (SHR), Wistar rats were used as normal controls.
# as §1
# Group therapy is described in the following description. Blood pressure and body weight are measured and grouped after one week of adaptive feeding in all rats. […] Eight rats in each group are treated for 8 weeks. Blood pressure is observed for 1 week after withdrawal.
# Blood pressure measurement: The rats are preheated at 38° C. for 5-10 minutes to avoid blood flow in the tail of the rat. The blood pressure of the rats is measured three times in a waking and quiet state, and the average value of three measurement times is used as the blood pressure of the rats. Blood pressure is measured twice a week, once 2 hours after administration and once 24 hours after administration, to observe the immediate antihypertensive effect and after 24 hours antihypertensive effect (and the peak-to-valley ratio).
# The valley-peak ratio calculation of depressurization amplitude: The difference of blood pressure before treatment minus 24 hours after administration is the trough of the range of blood pressure reduction, which is the lowest point before the next administration; the difference of blood pressure before treatment and 2 hours after administration is the peak value of blood pressure reduction, that is, the maximum point of blood pressure reduction after administration. Valley value of depressurization amplitude divided by peak value of depressurization amplitude is equal to valley-peak ratio of depressurization amplitude.
# [3] = 2 h after administration, treatment for 1 week, 0.8 g/kg crude drug, amlodipine 0.5 mg/kg
# [4] = 2 h after administration, treatment for 2 weeks, 0.8 g/kg crude drug, amlodipine 0.5 mg/kg
# [5] = 2 h after administration, treatment for 2 weeks, 0.8 g/kg crude drug, amlodipine 0.5 mg/kg, listed as amlodipine
# [6] = 2 h after administration, treatment for 1 week, 0.8 g/kg crude drug, amlodipine 0.5 mg/kg, listed as amlodipine
# [7] = 2 h after administration, treatment for 3 weeks, 0.8 g/kg crude drug, amlodipine 0.5 mg/kg
# [8] = 2 h after administration, treatment for 4 weeks, 0.8 g/kg crude drug, amlodipine 0.5 mg/kg
# [9] = 2 h after administration, treatment for 5 weeks, 0.8 g/kg crude drug, amlodipine 0.5 mg/kg
# [10] = 2 h after administration, treatment for 6 weeks, 0.8 g/kg crude drug, amlodipine 0.5 mg/kg
# [11] = 2 h after administration, treatment for 7 weeks, 0.8 g/kg crude drug, amlodipine 0.5 mg/kg
# [12] = 2 h after administration, treatment for 8 weeks, 0.8 g/kg crude drug, amlodipine 0.5 mg/kg
# [13] = 2 h after administration, treatment for 8 weeks, 0.8 g/kg crude drug, amlodipine 0.5 mg/kg, listed as amlodipine
# [14] = 24 h after administration, treatment for 1 week, 0.8 g/kg crude drug, amlodipine 0.5 mg/kg
# [15] = 24 h after administration, treatment for 2 weeks, 0.8 g/kg crude drug, amlodipine 0.5 mg/kg
# [16] = 24 h after administration, treatment for 3 weeks, 0.8 g/kg crude drug, amlodipine 0.5 mg/kg
# [17] = 24 h after administration, treatment for 4 weeks, 0.8 g/kg crude drug, amlodipine 0.5 mg/kg
# [18] = 24 h after administration, treatment for 5 weeks, 0.8 g/kg crude drug, amlodipine 0.5 mg/kg
# [19] = 24 h after administration, treatment for 6 weeks, 0.8 g/kg crude drug, amlodipine 0.5 mg/kg
# [20] = 24 h after administration, treatment for 7 weeks, 0.8 g/kg crude drug, amlodipine 0.5 mg/kg
# [21] = 24 h after administration, treatment for 8 weeks, 0.8 g/kg crude drug, amlodipine 0.5 mg/kg
# [22] = 24 h after administration, treatment for 8 weeks, 0.8 g/kg crude drug, amlodipine 0.5 mg/kg, listed as amlodipine
# [23] = stopping for 1 week after 8 weeks of treatment
# [24] = stopping for 3 days after 8 weeks of treatment
# [25] = stopping for 3 days after 8 weeks of treatment, listed as amlodipine
# [26] = treatment for 1 week, 0.8 g/kg crude drug, amlodipine 0.5 mg/kg
# [27] = treatment for 2 weeks, 0.8 g/kg crude drug, amlodipine 0.5 mg/kg
# [28] = treatment for 3 weeks, 0.8 g/kg crude drug, amlodipine 0.5 mg/kg
# [29] = treatment for 4 weeks, 0.8 g/kg crude drug, amlodipine 0.5 mg/kg
# [30] = treatment for 5 weeks, 0.8 g/kg crude drug, amlodipine 0.5 mg/kg
# [31] = treatment for 6 weeks, 0.8 g/kg crude drug, amlodipine 0.5 mg/kg
# [32] = treatment for 7 weeks, 0.8 g/kg crude drug, amlodipine 0.5 mg/kg
# [33] = treatment for 8 weeks, 0.8 g/kg crude drug, amlodipine 0.5 mg/kg
structure (smiles),measurement,setting,value
"CCOC(=O)C1=C(COCCN)NC(C)=C(C(=O)OC)C1c1ccccc1Cl (stereo not drawn) [Amlodipine, amlodipine besylate]",diastolic blood pressure,[1]; [3],142.6 ± 5.78 mmHg
same,systolic blood pressure,[1]; [3],173.8 ± 5.26 mmHg
same,diastolic blood pressure,[1]; [4],143.7 ± 4.28 mmHg
same,systolic blood pressure,[1]; [4],175.5 ± 4.48 mmHg
same,diastolic blood pressure,[1]; [5],143.7±4.28 mmHg
same,systolic blood pressure,[1]; [5],175.5±4.48 mmHg
same,diastolic blood pressure,[1]; before treatment,157.4 ± 5.67 mmHg
same,systolic blood pressure,[1]; before treatment,206.3 ± 6.26 mmHg
same,diastolic blood pressure,[2]; [3],143.2 mmHg
same,systolic blood pressure,[2]; [3],175.1 mmHg
same,diastolic blood pressure,[2]; [6],143.2±6.41 mmHg
same,systolic blood pressure,[2]; [6],175.1±4.44 mmHg
same,diastolic blood pressure,[2]; [4],145.5 mmHg
same,systolic blood pressure,[2]; [4],178.3 mmHg
same,diastolic blood pressure,[2]; [7],144.7 mmHg
same,systolic blood pressure,[2]; [7],177.8 mmHg
same,diastolic blood pressure,[2]; [8],146.2 mmHg
same,systolic blood pressure,[2]; [8],175.7 mmHg
same,diastolic blood pressure,[2]; [9],137.6 mmHg
same,systolic blood pressure,[2]; [9],174.3 mmHg
same,diastolic blood pressure,[2]; [10],143.1 mmHg
same,systolic blood pressure,[2]; [10],178.8 mmHg
same,diastolic blood pressure,[2]; [11],139.9 mmHg
same,systolic blood pressure,[2]; [11],175.8 mmHg
same,diastolic blood pressure,[2]; [12],144.7 mmHg
same,systolic blood pressure,[2]; [12],178.1 mmHg
same,diastolic blood pressure,[2]; [13],144.7±3.43 mmHg
same,systolic blood pressure,[2]; [13],178.1±2.67 mmHg
same,diastolic blood pressure,[2]; [14],162.3 mmHg
same,systolic blood pressure,[2]; [14],200.7 mmHg
same,diastolic blood pressure,[2]; [15],158.6 mmHg
same,systolic blood pressure,[2]; [15],202.6 mmHg
same,diastolic blood pressure,[2]; [16],159.0 mmHg
same,systolic blood pressure,[2]; [16],201.6 mmHg
same,diastolic blood pressure,[2]; [17],161.3 mmHg
same,systolic blood pressure,[2]; [17],209.0 mmHg
same,diastolic blood pressure,[2]; [18],161.8 mmHg
same,systolic blood pressure,[2]; [18],207.8 mmHg
same,diastolic blood pressure,[2]; [19],165.0 mmHg
same,systolic blood pressure,[2]; [19],202.8 mmHg
same,diastolic blood pressure,[2]; [20],156.3 mmHg
same,systolic blood pressure,[2]; [20],199.5 mmHg
same,diastolic blood pressure,[2]; [21],154.3 mmHg
same,systolic blood pressure,[2]; [21],202.0 mmHg
same,diastolic blood pressure,[2]; [22],154.3±5.50 mmHg
same,systolic blood pressure,[2]; [22],202.0±5.88 mmHg
same,diastolic blood pressure,[2]; before treatment,156.0 mmHg
same,systolic blood pressure,[2]; before treatment,209.8 mmHg and 209.8 ± 8.92 mmHg
same,diastolic blood pressure,[2]; [23],155.4 mmHg
same,systolic blood pressure,[2]; [23],214.2 mmHg
same,diastolic blood pressure,[2]; [24],158.7 mmHg
same,systolic blood pressure,[2]; [24],205.4 mmHg
same,diastolic blood pressure,[2]; [25],158.7±2.79 mmHg
same,systolic blood pressure,[2]; [25],205.4±1.85 mmHg
same,2-hour hypotensive amplitude (peak of systolic blood pressure reduction),[2]; [26],34.7 mmHg
same,24-hour hypotensive amplitude (trough of systolic blood pressure reduction),[2]; [26],9.1 mmHg
same,valley-peak ratio of Systolic Blood Pressure Reduction,[2]; [26],0.26
same,2-hour hypotensive amplitude (peak of systolic blood pressure reduction),[2]; [27],31.5 mmHg
same,24-hour hypotensive amplitude (trough of systolic blood pressure reduction),[2]; [27],7.2 mmHg
same,valley-peak ratio of Systolic Blood Pressure Reduction,[2]; [27],0.23
same,2-hour hypotensive amplitude (peak of systolic blood pressure reduction),[2]; [28],32.0 mmHg
same,24-hour hypotensive amplitude (trough of systolic blood pressure reduction),[2]; [28],8.2 mmHg
same,valley-peak ratio of Systolic Blood Pressure Reduction,[2]; [28],0.26
same,2-hour hypotensive amplitude (peak of systolic blood pressure reduction),[2]; [29],34.1 mmHg
same,24-hour hypotensive amplitude (trough of systolic blood pressure reduction),[2]; [29],0.8 mmHg
same,valley-peak ratio of Systolic Blood Pressure Reduction,[2]; [29],0.02
same,2-hour hypotensive amplitude (peak of systolic blood pressure reduction),[2]; [30],35.5 mmHg
same,24-hour hypotensive amplitude (trough of systolic blood pressure reduction),[2]; [30],2.0 mmHg
same,valley-peak ratio of Systolic Blood Pressure Reduction,[2]; [30],0.06
same,2-hour hypotensive amplitude (peak of systolic blood pressure reduction),[2]; [31],31.0 mmHg
same,24-hour hypotensive amplitude (trough of systolic blood pressure reduction),[2]; [31],7.0 mmHg
same,valley-peak ratio of Systolic Blood Pressure Reduction,[2]; [31],0.23
same,2-hour hypotensive amplitude (peak of systolic blood pressure reduction),[2]; [32],34.0 mmHg
same,24-hour hypotensive amplitude (trough of systolic blood pressure reduction),[2]; [32],10.3 mmHg
same,valley-peak ratio of Systolic Blood Pressure Reduction,[2]; [32],0.30
same,2-hour hypotensive amplitude (peak of systolic blood pressure reduction),[2]; [33],31.7 mmHg
same,24-hour hypotensive amplitude (trough of systolic blood pressure reduction),[2]; [33],7.8 mmHg
same,valley-peak ratio of Systolic Blood Pressure Reduction,[2]; [33],0.25
